{"source": "patent US5128448A", "about": "“CCK analogs with appetite regulating activity” (Hoffman-La Roche Inc., priority 1990, dated 1992)", "target": "Human neutral metalloendopeptidase (Homo sapiens, UniProt P08473)", "sequence (P08473 whole entry)": "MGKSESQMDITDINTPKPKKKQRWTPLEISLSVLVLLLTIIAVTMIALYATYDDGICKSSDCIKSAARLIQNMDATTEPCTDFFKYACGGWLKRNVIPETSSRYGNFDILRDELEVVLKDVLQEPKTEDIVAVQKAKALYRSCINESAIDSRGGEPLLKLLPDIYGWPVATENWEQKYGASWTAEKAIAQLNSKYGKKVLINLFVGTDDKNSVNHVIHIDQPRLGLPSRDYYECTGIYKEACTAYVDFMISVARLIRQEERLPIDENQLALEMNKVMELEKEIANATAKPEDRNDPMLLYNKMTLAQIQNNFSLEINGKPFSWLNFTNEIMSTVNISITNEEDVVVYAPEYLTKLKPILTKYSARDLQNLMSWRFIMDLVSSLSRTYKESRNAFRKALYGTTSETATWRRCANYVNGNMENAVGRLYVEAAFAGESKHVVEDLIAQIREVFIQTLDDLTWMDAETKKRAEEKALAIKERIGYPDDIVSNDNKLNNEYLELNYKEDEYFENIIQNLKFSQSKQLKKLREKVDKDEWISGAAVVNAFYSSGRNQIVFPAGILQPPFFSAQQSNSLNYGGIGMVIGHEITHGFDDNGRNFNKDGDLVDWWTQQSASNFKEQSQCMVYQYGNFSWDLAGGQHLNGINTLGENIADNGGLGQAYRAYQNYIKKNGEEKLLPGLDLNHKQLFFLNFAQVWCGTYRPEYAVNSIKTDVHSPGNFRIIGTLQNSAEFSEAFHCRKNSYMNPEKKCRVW", "assay": "Degradation by human neutral metalloendopeptidase (HPLC)", "format": "in vitro ADME", "details": "for % Degradation by Heights: 37° C., tris-HCl pH 7.6; for No. of Peaks: HPLC", "protocol": "Human neutral metalloendopeptidase (0.01 mg) and 5 nmol of peptide were incubated in […] tris-HCl buffer (pH 7.6) and at 37° C. for varying periods of time. The degradation of the peptide was monitored by analytical HPLC on a 5 micron Adsorbosphere-ODS column with 0-50% CH3 CN gradient in 0.1N potassium phosphate buffer, pH 3.0, with UV detection at 210 nm. Rates are based on presumed production of Asp-Tyr(SO3 H)-Met-Gly for CCK-8 and Ac-Tyr(SO3 H)-Met-Gly for the compound of example 73.", "note": "Non-standard residues stand in square brackets, D forms with d. Residues, ends and D or L forms follow the SMILES beside them. sY = N[C@@H](Cc1ccc(OS(=O)(=O)O)cc1)C(=O)O; 2Nal = N[C@@H](Cc1ccc2ccccc2c1)C(=O)O; Cha = N[C@@H](CC1CCCCC1)C(=O)O", "data": [{"molecule": "CSCC[C@H](NC(=O)[C@H](Cc1ccc(OS(=O)(=O)O)cc1)NC(=O)[C@@H](N)CC(=O)O)C(=O)NCC(=O)N[C@@H](Cc1c[nH]c2ccccc12)C(=O)N[C@@H](CCSC)C(=O)N[C@@H](CC(=O)O)C(=O)N[C@@H](Cc1ccccc1)C(N)=O", "note": "[CCK-8, Asp^26 -Tyr-(SO3 H)^27 -Met^28 -Gly^29 -Trp^30 -Met^31 -Asp^32 -Phe^33 -NH2]", "values": [{"measurement": "% Degradation by Heights", "setting": "time of incubation 0 min", "value": 0, "unit": "%"}, {"measurement": "% Degradation by Heights", "setting": "time of incubation 15 min", "value": 6.2, "unit": "%"}, {"measurement": "% Degradation by Heights", "setting": "time of incubation 30 min", "value": 33.2, "unit": "%"}, {"measurement": "% Degradation by Heights", "setting": "time of incubation 60 min", "value": 69.7, "unit": "%"}, {"measurement": "No. of Peaks", "setting": "time of incubation 60 min", "value": 4}]}, {"molecule": "CSCC[C@H](NC(=O)[C@H](Cc1ccc(OS(=O)(=O)O)cc1)NC(C)=O)C(=O)NCC(=O)N[C@@H](Cc1ccc2ccccc2c1)C(=O)N[C@@H](CCSC)C(=O)N[C@@H](CC(=O)O)C(=O)N[C@@H](CC1CCCCC1)C(N)=O", "note": "[Example 73, Ac-Tyr(SO3 H)-Met-Gly-(2)Nal-Met-Asp-Cyclohexylalanine-NH2] (Ac-[sY]MG[2Nal]MD[Cha]-NH2)", "values": [{"measurement": "% Degradation by Heights", "setting": "time of incubation 0 min", "value": 0, "unit": "%"}, {"measurement": "% Degradation by Heights", "setting": "time of incubation 60 min", "value": 10.0, "unit": "%"}, {"measurement": "% Degradation by Heights", "setting": "time of incubation 120 min", "value": 27.0, "unit": "%"}, {"measurement": "% Degradation by Heights", "setting": "time of incubation 240 min", "value": 56.4, "unit": "%"}, {"measurement": "No. of Peaks", "setting": "time of incubation 240 min, one peak detected and one peak that coeluted with substrate", "value": 2}]}]}
